Biological target: T1, human ΔF508-CFTR (Homo sapiens, UniProt P13569, DEL508-508)
T1 construct: expressed in transfected cells
Test: CFTR-YFP high throughput assay, CFTR corrector protocol (YFP iodide flux quench)
Assay type: cell-based
Conditions: FRT cells expressing human ΔF508-CFTR and YFP-H148Q/I152L, 24-26 h incubation with compound; for Emax: normalized to the positive control, read-out: EMAX (% Efficacy, EMAX normalized to the positive control); for EC50: stimulated with 20 μM Forskolin & 30 μM P3
Method: Assays for Detecting and Measuring the Effect of Compounds on dF508-CFTR Channels CFRT-YFP High Throughput Assay-CFTR Corrector Protocol:
This protocol is designed to selectively screen small molecule compounds for F508del CFTR corrector activities in the HTS YFP flux assay. In this protocol, the cells are incubated with testing compounds for 24 hours, washed with PBS, stimulated with forskolin and a standard potentiator, and read on a 384-well HTS plate reader, such as the Hamamatsu FDDD-6000.
YFP fluorescence intensity is acquired at high speed before and after iodide buffer is injected to the assay cells. Iodide enters the cells via active CFTR channels in the plasma membrane, and quenches the YFP fluorescence. The rate of fluorescence quenching is proportionally related to the total CFTR activities in the cell membrane. dF508-CFTR corrector accelerates YFP quenching by increasing the number of CFTR molecules in the testing cell plasma membrane.
This method was initially developed for bench top plate readers (Galietta et al., 2001), and was adapted to the HTS format (Sui et al. Assay Drug Dev. Technol. 2010).
Fisher Rat Thyroid (FRT) cells stably expressing both human ΔF508-CFTR and a halide-sensitive yellow fluorescent protein (YFP-H148Q/I152L 25,22) (Galietta et al., Am. J. Physiol Cell Physiol, 281(5), C1734, 2001) were cultured on plastic surface in Coon's modified Ham's F12 medium supplemented with FBS 10%, L-glutamine 2 mM, penicillin 100 U/ml, and streptomycin 100 μg/ml. G418 (0.75-1.0 mg/ml) and zeocin (3.2 ug/ml) were used for selection of FRT cells expressing ΔF508-CFTR and YFP. For primary screening, FRT cells were plated into 384-well black wall, transparent bottom microtiter plates (Costar; Corning Inc.) at a cell density of 20,000-40,000 per well. Test compound was applied to the cells at varying concentrations ranging from 2 nM-[…] in either a 2-fold or 3-fold dilution series. Cells were incubated in a cell culture incubator at 37° C. with 5% CO2 for 24-26 h. Assay plates were washed with DPBS media (Thermo, cat #SH30028.02) to remove unbound cells and compound. Stimulation media (25 μL) containing 20 μM Forskolin & 30 μM P3 [6-(Ethyl-phenyl-sulfonyl)-4-oxo-1,4-dihydro-quinoline-3-carboxylic acid 2-methoxy-benzylamide] in Hams F-12 coon's modified media was added to the plate wells and incubated at room temperature for 60-120 min. 25 μL of HEPES-PBS -I buffer (10 mM HEPES, 1 mM MgCl2, 3 mM KCl, 1 mM CaCl2, 150 mM NaI) was then added and fluorescence quench curves (Excitation 500 nm/Emission 540 nm; exposure 136 ms) were immediately recorded on an FDSS-6000 plate reader (Hamamatsu). Quench rates were derived from least squares fitting of the data as described by Sui et al. (2010).

T1 sequence (P13569 with tags, fused parts or gaps DEL508-508): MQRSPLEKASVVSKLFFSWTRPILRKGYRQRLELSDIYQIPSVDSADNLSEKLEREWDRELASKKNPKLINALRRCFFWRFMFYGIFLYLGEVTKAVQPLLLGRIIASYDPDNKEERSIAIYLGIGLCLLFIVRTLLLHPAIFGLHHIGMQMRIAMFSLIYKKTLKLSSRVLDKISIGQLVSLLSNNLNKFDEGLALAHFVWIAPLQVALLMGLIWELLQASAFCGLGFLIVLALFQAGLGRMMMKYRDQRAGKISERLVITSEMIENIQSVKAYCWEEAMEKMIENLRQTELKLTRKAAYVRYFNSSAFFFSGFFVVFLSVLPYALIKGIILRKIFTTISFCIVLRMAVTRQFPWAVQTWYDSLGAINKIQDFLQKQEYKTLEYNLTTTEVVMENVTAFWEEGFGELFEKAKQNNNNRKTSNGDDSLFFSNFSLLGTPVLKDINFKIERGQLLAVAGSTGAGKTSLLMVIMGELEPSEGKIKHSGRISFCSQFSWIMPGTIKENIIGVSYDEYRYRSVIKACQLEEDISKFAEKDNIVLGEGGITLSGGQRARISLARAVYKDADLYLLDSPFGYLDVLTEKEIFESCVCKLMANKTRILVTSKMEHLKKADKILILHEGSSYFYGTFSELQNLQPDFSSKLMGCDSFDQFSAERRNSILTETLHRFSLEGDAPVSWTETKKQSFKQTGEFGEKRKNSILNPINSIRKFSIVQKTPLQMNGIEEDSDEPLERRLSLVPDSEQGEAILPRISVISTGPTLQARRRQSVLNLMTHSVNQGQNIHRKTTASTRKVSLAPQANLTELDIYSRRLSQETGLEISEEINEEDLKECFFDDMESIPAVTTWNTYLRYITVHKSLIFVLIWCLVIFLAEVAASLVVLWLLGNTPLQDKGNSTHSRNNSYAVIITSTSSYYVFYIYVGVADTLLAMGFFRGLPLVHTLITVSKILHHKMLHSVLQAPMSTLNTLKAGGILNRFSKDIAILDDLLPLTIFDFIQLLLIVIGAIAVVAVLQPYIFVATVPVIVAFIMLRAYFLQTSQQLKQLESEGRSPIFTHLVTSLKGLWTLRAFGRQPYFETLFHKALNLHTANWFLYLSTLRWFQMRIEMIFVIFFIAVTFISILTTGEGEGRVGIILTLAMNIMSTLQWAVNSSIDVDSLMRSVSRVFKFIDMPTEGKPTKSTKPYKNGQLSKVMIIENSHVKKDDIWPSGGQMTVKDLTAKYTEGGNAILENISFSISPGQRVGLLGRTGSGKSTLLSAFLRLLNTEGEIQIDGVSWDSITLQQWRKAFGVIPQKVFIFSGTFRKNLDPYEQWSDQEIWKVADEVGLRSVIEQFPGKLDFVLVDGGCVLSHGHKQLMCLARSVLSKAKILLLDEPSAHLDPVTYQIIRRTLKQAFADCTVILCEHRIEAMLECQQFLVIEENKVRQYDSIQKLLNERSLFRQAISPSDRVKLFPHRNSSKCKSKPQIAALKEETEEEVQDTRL

SMILES | Emax [%] | EC50 [µM]
CCc1ccc(S(=O)(=O)N2CCC(n3c(-c4ccccc4)nc4cccnc43)CC2)cc1 [Example 4, 3-(1-((4-Ethylphenyl)sulfonyl)piperidin-4-yl)-2-phenyl-3H-imidazo[4,5b]pyridine] | 30 to 80 | > 20
Cc1ccc2nc(-c3ccncc3Cl)n(C3CCN(S(=O)(=O)c4ccc5c(c4)OCO5)CC3)c2n1 [Example 14, 3-(1-(Benzo[d][1,3]dioxol-5-ylsulfonyl)piperidin-4-yl)-2-(3-chloropyridin-4-yl)-5-methyl-3H-imidazo[4,5-b]pyridine] | 10 to 30 | > 20
COc1ccc(S(=O)(=O)N2CCC(n3c(-c4ccccc4)nc4cccnc43)CC2)cc1Cl [Example 16] | > 80 | 10 to 20
COc1ccc(C(=O)N2CCC(n3c(-c4ccccc4)nc4cccnc43)CC2)cc1Cl [Example 21] | 10 to 30 | > 20
COc1ccc(S(=O)(=O)N2CCC(n3c(C4CCCC4)nc4cccnc43)CC2)cc1Cl [Example 25] | 30 to 80 | < 10
COc1ccc(S(=O)(=O)N2CCC(n3c(-c4ccccc4)nc4cc(C)cnc43)CC2)cc1Cl [Example 26] | 30 to 80 | < 10
COc1ccc(S(=O)(=O)N2CCC(n3c(-c4cccnc4)nc4cccnc43)CC2)cc1Cl [Example 27] | 30 to 80 | < 10
COc1ccc(S(=O)(=O)N2CCC(n3c(-c4ccncc4)nc4cccnc43)CC2)cc1Cl [Example 28] | 30 to 80 | < 10
COc1ccc(S(=O)(=O)N2CCC(n3c(-c4ccc(Cl)cc4)nc4cccnc43)CC2)cc1Cl [Example 29] | 10 to 30 | < 10
COc1ccc(S(=O)(=O)N2CCC(n3c(-c4ccccc4C)nc4cccnc43)CC2)cc1Cl [Example 30] | 30 to 80 | < 10
COc1ccc(S(=O)(=O)N2CCC(n3c(C4CCCCC4)nc4cccnc43)CC2)cc1Cl [Example 31] | 30 to 80 | < 10
COc1ccc(S(=O)(=O)N2CCC(n3c(-c4cnc[nH]4)nc4cccnc43)CC2)cc1Cl [Example 32] | 30 to 80 | > 20
COc1ccc(S(=O)(=O)N2CCC(n3c(-c4nc5ccccc5[nH]4)nc4cccnc43)CC2)cc1Cl [Example 33] | 30 to 80 | 10 to 20
COc1ccc(S(=O)(=O)N2CCC(n3c(-c4ccc5[nH]cnc5c4)nc4cccnc43)CC2)cc1Cl [Example 34] | 30 to 80 | < 10
COc1ccc(S(=O)(=O)N2CCC(n3c(-c4ccccc4)nc4cc(Cl)cnc43)CC2)cc1Cl [Example 35] | 30 to 80 | < 10
COc1ccc(S(=O)(=O)N2CCC(n3c(-c4ccccc4)nc4ccc(Cl)nc43)CC2)cc1Cl [Example 36] | 10 to 30 | < 10

More lines, now with the values ahead:

Emax [%] | EC50 [µM] | SMILES
30 to 80 | < 10 | O=S(=O)(c1ccc2c(c1)OCO2)N1CCC(n2c(-c3ccccc3Cl)nc3cccnc32)CC1 [Example 1, 3-(1-(Benzo[d][1,3]dioxol-5-ylsulfonyl)piperidin-4-yl)-2-(2-chlorophenyl)-3H-imidazo[4,5-b]pyridine]
30 to 80 | < 10 | Cc1ccc2nc(-c3ccccc3Cl)n(C3CCN(S(=O)(=O)c4ccc5c(c4)OCO5)CC3)c2n1 [Example 2]
30 to 80 | < 10 | COc1ccc(S(=O)(=O)N2CCC(n3c(-c4ccccc4)nc4ccc(C)nc43)CC2)cc1Cl [Example 3, 3-(1-((3-Chloro-4-methoxyphenyl)sulfonyl)piperidin-4-yl)-5-methyl-2-phenyl-3H-imidazo[4,5-b]pyridine]
30 to 80 | < 10 | O=S(=O)(c1ccc2c(c1)OCO2)N1CCC(n2c(-c3ccccc3)nc3cccnc32)CC1 [Example 5, 3-(1-(Benzo[d][1,3]dioxol-5-ylsulfonyl)piperidin-4-yl)-2-phenyl-3H-imidazo[4,5-b]pyridine]
30 to 80 | < 10 | COc1ccc(S(=O)(=O)N2CCC(n3c(-c4ccccc4Cl)nc4cccnc43)CC2)cc1Cl [Example 6, 3-(1-((3-Chloro-4-methoxyphenyl)sulfonyl)piperidin-4-yl)-2-(2-chlorophenyl)-3H-imidazo[4,5-b]pyridine]
30 to 80 | < 10 | Cc1ccc2nc(-c3ccccc3Cl)n(C3CCN(S(=O)(=O)c4ccc(C)c(Cl)c4)CC3)c2n1 [Example 7, 3-(1-((3-Chloro-4-methylphenyl)sulfonyl)piperidin-4-yl)-2-(2-chlorophenyl)-5-methyl-3H-imidazo[4,5-b]pyridine]
30 to 80 | < 10 | COc1ccc(S(=O)(=O)N2CCC(n3c(-c4ccccc4Cl)nc4ccc(C)nc43)CC2)cc1F [Example 8, 2-(2-Chlorophenyl)-3-(1-((3-fluoro-4-methyoxyphenyl)sulfonyl)piperidin-4-yl)-5-methyl-3H-imidazo[4,5-b]pyridine]
30 to 80 | < 10 | COc1ccc(S(=O)(=O)N2CCC(n3c(-c4ccccc4O)nc4cccnc43)CC2)cc1Cl [Example 9, 2-(3-(1-((3-Chloro-4-methoxyphenyl)sulfonyl)piperidin-4-yl)-3H-imidazo[4,5-b]pyridin-2-yl)phenol]
30 to 80 | < 10 | Cc1ccc(S(=O)(=O)N2CCC(n3c(-c4ccccc4Cl)nc4cccnc43)CC2)cc1Cl [Example 10, 3-(1-((3-Chloro-4-methylphenyl)sulfonyl)piperidin-4-yl)-2-(2-chlorophenyl)-3H-imidazo[4,5-b]pyridine]
30 to 80 | < 10 | COc1ccc(S(=O)(=O)N2CCC(n3c(-c4ccccc4F)nc4cccnc43)CC2)cc1Cl [Example 11, 3-(1-((3-Chloro-4-methoxyphenyl)sulfonyl)piperidin-4-yl)-2-(2-fluorophenyl)-3H-imidazo[4,5-b]pyridine]
10 to 30 | < 10 | COc1ccc(S(=O)(=O)N2CCC(n3c(-c4ccc(Cl)cc4Cl)nc4cccnc43)CC2)cc1Cl [Example 12, 3-(1-((3-Chloro-4-methoxyphenyl)sulfonyl)piperidin-4-yl)-2-(2,4-dichlorophenyl)-3H-imidazo[4,5-b]pyridine]
30 to 80 | < 10 | Cc1ccc2nc(-c3ccncc3Cl)n(C3CCN(S(=O)(=O)c4ccc5c(c4)OC(F)(F)O5)CC3)c2n1 [Example 13, 2-(3-Chloropyridin-4-yl)-3-(1-((2,2-difluorobenzo[d][1,3]dioxol-5-yl)sulfonyl)piperidin-4-yl)-5-methyl-3H-imidazo[4,5-b]pyridine]
30 to 80 | < 10 | Cc1ccc2nc(-c3cccnc3Cl)n(C3CCN(S(=O)(=O)c4ccc5c(c4)OC(F)(F)O5)CC3)c2n1 [Example 15, 2-(2-Chloropyridin-3-yl)-3-(1-((2,2-difluorobenzo[d][1,3]dioxol-5-yl)sulfonyl)piperidin-4-yl)-5-methyl-3H-imidazo[4,5-b]pyridine]
30 to 80 | < 10 | Cc1ccc(S(=O)(=O)N2CCC(n3c(-c4ccccc4)nc4cccnc43)CC2)cc1 [Example 17]
30 to 80 | < 10 | COc1ccc(S(=O)(=O)N2CCC(n3c(-c4ccccc4)nc4cccnc43)CC2)cc1F [Example 18]
30 to 80 | < 10 | COc1ccc(S(=O)(=O)N2CCC(n3c(-c4ccccc4)nc4cccnc43)CC2)cc1 [Example 19]
30 to 80 | < 10 | Cc1ccc(S(=O)(=O)N2CCC(n3c(-c4ccccc4)nc4cccnc43)CC2)cc1Cl [Example 20]
30 to 80 | < 10 | COc1ccc(S(=O)(=O)N2CCC(n3c(-c4cccc(Cl)c4)nc4cccnc43)CC2)cc1Cl [Example 22]
> 80 | < 10 | COc1ccc(S(=O)(=O)N2CCC(n3c(-c4cccc(C)c4)nc4cccnc43)CC2)cc1Cl [Example 23]
30 to 80 | < 10 | COc1ccc(S(=O)(=O)N2CCC(n3c(-c4ccc(C)cc4)nc4cccnc43)CC2)cc1Cl [Example 24]
